Target: σ1-receptor (Cavia porcellus, UniProt Q60492)
Assay: sigma-1 receptor binding assay, [3H](+)-pentazocine, brain membranes
Conditions: 1µM compound; [3H](+)-pentazocine 0.5 nM; guinea pig brain membranes; 37°C for 150 min; read-out: binding sigma-1 % Inh (1µM)
Procedure: Some representative compounds of the invention were tested for their activity as sigma (sigma-1) inhibitors. The following protocols were followed:
Brain membrane preparation and binding assays for the σ1-receptor were performed as described (DeHaven-Hudkins et al., 1992) with some modifications. In brief, guinea pig brains were homogenized in 10 vols. (w/v) of Tris-HCl 50 mM 0.32 M sucrose, pH 7.4, with a Kinematica Polytron PT 3000 at 15000 r.p.m. for 30 s. The homogenate was centrifuged at 1000g for 10 min at 4°C and the supernatants collected and centrifuged again at 48000g for 15 min at 4°C. The pellet was resuspended in 10 volumes of Tris-HCl buffer (50 mM, pH 7.4), incubated at 37°C for 30 min, and centrifuged at 48000g for 20 min at 4°C. Following this, the pellet was resuspended in fresh Tris-HCl buffer (50 mM, pH 7.4) and stored on ice until use.
Each assay tube contained 10 µL of [^3H](+)-pentazocine (final concentration of 0.5 nM), 900 µL of the tissue suspension to a final assay volume of 1 mL and a final tissue concentration of approximately 30 mg tissue net weight/mL. Non-specific binding was defined by addition of a final concentration of 1 µM haloperidol. All tubes were incubated at 37°C for 150 min before termination of the reaction by rapid filtration over Schleicher & Schuell GF 3362 glass fibre filters [previously soaked in a solution of 0,5% polyethylenimine for at least 1 h]. Filters were then washed with four times with 4 mL of cold Tris-HCl buffer (50 mM, pH 7.4). Following addition of scintillation cocktail, the samples were allowed to equilibrate overnight. The amount of bound radioactivity was determined by liquid scintillation spectrometry using a Wallac Winspectral 1414 liquid scintillation counter. Protein concentrations were determined by the method of Lowry et al. (1951).

Sequence of σ1-receptor (Q60492 whole entry): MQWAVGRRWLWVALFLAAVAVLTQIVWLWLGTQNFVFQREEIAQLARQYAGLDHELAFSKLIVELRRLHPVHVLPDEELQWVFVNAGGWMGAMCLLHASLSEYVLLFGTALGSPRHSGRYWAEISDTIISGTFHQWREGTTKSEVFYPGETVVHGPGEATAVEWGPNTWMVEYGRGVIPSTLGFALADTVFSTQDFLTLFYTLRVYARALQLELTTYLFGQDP

| inhibition at 1 µM [%] | SMILES |
| --- | --- |
| 60 | [O-][N+]1(CCC2CCCc3c2cnn3-c2ccccc2)CCOCC1 (stereo not drawn) [Example 1, 4-(2-(1-phenyl-4,5,6,7-tetrahydro-1H-indazol-4-yl)ethyl)morpholine N-oxide] |
| 76.4 | [O-][N+]1(CC[C@H]2CCCc3c2cnn3-c2ccccc2)CCOCC1 [Example 3, (R)-4-(2-(1-phenyl-4,5,6,7-tetrahydro-1H-indazol-4-yl)ethyl)morpholine N-oxide] |
| 98 | [O-][N+]1(CC[C@@H]2CCCc3c2cnn3-c2ccccc2)CCOCC1 [Example 5, (S)-4-(2-(1-phenyl-4,5,6,7-tetrahydro-1H-indazol-4-yl)ethyl)morpholine N-oxide] |
